Holding throughout (assay): drug sensitivity score (DSS), CellTiter-Blue viability (DSS (AUC-based score)); higher = stronger viability inhibition; extreme values may be limits of the assay
Holding throughout (conditions): incubation time: 72 h
On the technique in general: Alamar Blue is a resazurin reagent that responds to reducing activity.

In one test the test system is MDA-MB-436. How it is done: (§1)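 DSRT with the CellTiter-Blue (resazurin reduction) viability readout, fluorescence 560/590 nm, 72 h incubation. Plates were normalised to DMSO and benzethonium chloride controls. DSS is computed from the area under the fitted dose-response curve (5 or 9 concentrations).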
The subject of a further test is MDA-MB-453. How it is done:
as §1

Another test has as its system MFM-223. How it is done:
as §1

The next test relates to HCC1937. On the procedure: as §1
For another test, the system named is CAL-51. On the procedure: as §1
Another test has as its system Hs578T. How it is done: as §1
For a further test, the system named is CAL-85-1. On the procedure: as §1
The next test has as its system HCC1143. How it is done:
as §1

In a further test the test system is CAL-120. On the procedure: as §1
A further test concerns MDA-MB-468. How it is done:
as §1

Several values for one entry are separate records, joined by “and”; a condition that tells them apart may be missing. Equal entries are not always repeated.

Regarding `CC(=O)O[C@H]1C(=O)[C@@]2(C)[C@H]([C@H](OC(=O)c3ccccc3)[C@]3(O)C[C@H](OC(=O)[C@H](O)[C@@H](NC(=O)c4ccccc4)c4ccccc4)C(C)=C1C3(C)C)[C@]1(OC(C)=O)CO[C@@H]1C[C@@H]2O` [Paclitaxel], the drug sensitivity score in the test on MDA-MB-436 turned out to be 15.8; with MDA-MB-453, 22.2; in the test on MFM-223 it was 15; in the test on HCC1937 it was 22.9; in the test on CAL-51, 19.3; in the test on Hs578T, 24.4. In addition, the drug sensitivity score with CAL-85-1 worked out at 18.3; with HCC1143 it was 17.6; in the test on CAL-120, 22.2; with MDA-MB-468, 16.4.

For `CCOc1cc2ncc(C#N)c(Nc3ccc(OCc4ccccn4)c(Cl)c3)c2cc1NC(=O)/C=C/CN(C)C` [Neratinib], the drug sensitivity score came out at 0 in the test on MDA-MB-436; 4.42 in the test on MDA-MB-453; 0 in the test on MFM-223; 0 in the test on HCC1937; 0 in the test on CAL-51; 0 in the test with Hs578T. The drug sensitivity score in the test with CAL-85-1, in the test with HCC1143, with CAL-120 and in the test with MDA-MB-468 was 0 throughout.

`CC(C)(C)c1cc(NC(=O)Nc2ccc(-c3cn4c(n3)sc3cc(OCCN5CCOCC5)ccc34)cc2)no1` [Quizartinib]: the drug sensitivity score in the test on MDA-MB-436, in the test with MDA-MB-453, in the test with MFM-223, in the test on HCC1937, in the test with CAL-51 and in the test with Hs578T was 0 throughout. Further, the drug sensitivity score in the test on CAL-85-1, in the test with HCC1143, in the test with CAL-120 and with MDA-MB-468 was 0 in each case.

`COc1c(C)cnc(Cn2cnc3c(Cl)nc(N)nc32)c1C` [BIIB021]: the drug sensitivity score stood at 11.9 with MDA-MB-436; 24.8 with MDA-MB-453; 18.6 with MFM-223; 19.4 in the test on HCC1937; 15.5 in the test on CAL-51; 12.9 in the test on Hs578T. The drug sensitivity score in the test on CAL-85-1 stood at 13.6; with HCC1143, 17; in the test with CAL-120, 23.5; with MDA-MB-468 it was 14.4.

For the compound `COc1ccc(C2=N[C@@H](c3ccc(Cl)cc3)[C@@H](c3ccc(Cl)cc3)N2C(=O)N2CCNC(=O)C2)c(OC(C)C)c1` [Nutlin-3], the drug sensitivity score with MDA-MB-436 was determined as 0; in the test on MDA-MB-453, 0; in the test on MFM-223, 0; in the test on HCC1937 it was 0; in the test on CAL-51, 2.91; in the test on Hs578T, 0. Moreover, the drug sensitivity score in the test on CAL-85-1, in the test on HCC1143, with CAL-120 and in the test on MDA-MB-468 was 0 each time.

With `Cn1c(=O)c(F)c(Nc2ccc(I)cc2F)c2c(=O)n(C[C@@H](O)CO)cnc21` [TAK-733], the drug sensitivity score amounted to 0 in the test with MDA-MB-436; 3.27 in the test on MDA-MB-453; 5.03 in the test with MFM-223; 0 in the test on HCC1937; 3.52 in the test with CAL-51; 1.73 in the test with Hs578T. For the same compound, the drug sensitivity score was 7.69 with CAL-85-1, 8.4 in the test on HCC1143, 4.61 in the test with CAL-120 and 0 in the test on MDA-MB-468.

Turning to `COC(=O)C[C@](O)(CCCC(C)(C)O)C(=O)O[C@@H]1C(OC)=C[C@]23CCCN2CCc2cc4c(cc2[C@H]13)OCO4` [Omacetaxine], the drug sensitivity score in the test on MDA-MB-436 stood at 26.7; in the test with MDA-MB-453, 28.2; with MFM-223, 26.3; with HCC1937, 31.8; in the test on CAL-51 it was 30.7; with Hs578T, 28.8. Besides, the drug sensitivity score amounted to 31.8 with CAL-85-1, 24.5 with HCC1143, 28.6 with CAL-120 and 28.5 in the test with MDA-MB-468.

As for `O=P(O)(NCCCl)NCCCl` [Ifosfamide mustard], the drug sensitivity score in the test on MDA-MB-436, with MDA-MB-453, in the test on MFM-223, in the test on HCC1937, in the test on CAL-51 and with Hs578T was 0 in each case. The drug sensitivity score in the test with CAL-85-1, in the test with HCC1143, with CAL-120 and in the test with MDA-MB-468 was 0 in each case.

In the case of `CS(=O)(=O)CCNCc1ccc(-c2ccc3ncnc(Nc4ccc(OCc5cccc(F)c5)c(Cl)c4)c3c2)o1` [Lapatinib], the drug sensitivity score is 4.07 and 1.46 in the test with MDA-MB-436; 17.8 and 17 with MDA-MB-453; 0 with CAL-51; 3.66 and 4.18 with Hs578T; 6.56 and 6.25 in the test with CAL-85-1; 0 in the test with HCC1143. In addition, the drug sensitivity score with MDA-MB-468 is 8.9 and 8.18.

On to `CS(=O)(=O)OCCCCOS(C)(=O)=O` [Busulfan], for which the drug sensitivity score turned out to be 0 with MDA-MB-436; 0 in the test with MDA-MB-453; 0 in the test with MFM-223; 2.62 with HCC1937; 0 in the test with CAL-51; 0 in the test on Hs578T. In addition, the drug sensitivity score in the test on CAL-85-1, in the test with HCC1143, with CAL-120 and in the test on MDA-MB-468 was 0 throughout.

Turning to `COc1cc(Nc2ncc(F)c(Nc3ccc4c(n3)NC(=O)C(C)(C)O4)n2)cc(OC)c1OC` [R406], the drug sensitivity score in the test with MDA-MB-436, in the test with MDA-MB-453, with MFM-223, in the test on HCC1937, in the test on CAL-51 and in the test with Hs578T was 0 throughout. Also, the drug sensitivity score with CAL-85-1, in the test with HCC1143, in the test on CAL-120 and with MDA-MB-468 was 0 in each case.

`COC1=C2C[C@@H](C)C[C@H](OC)[C@H](O)[C@@H](C)/C=C(\C)[C@H](OC(N)=O)[C@@H](OC)/C=C\C=C(/C)C(=O)NC(=CC1=O)C2=O` [Geldanamycin]: the drug sensitivity score is 25 with MDA-MB-436; 23 with MDA-MB-453; 21.8 in the test on MFM-223; 21.8 with HCC1937; 14.4 in the test with CAL-51; 19.2 with Hs578T. Moreover, the drug sensitivity score came out at 16.6 in the test with CAL-85-1, 20.4 with HCC1143, 25.7 with CAL-120 and 24.1 in the test with MDA-MB-468.

`O=C(c1ccc(OCCN2CCCCC2)cc1)c1c(-c2ccc(O)cc2)sc2cc(O)ccc12` [Raloxifene]: the drug sensitivity score is 0 in the test on MDA-MB-436; 1.25 in the test on MDA-MB-453; 0 with MFM-223; 0 with HCC1937; 0 in the test on CAL-51; 0 in the test on Hs578T. The drug sensitivity score in the test on CAL-85-1, in the test with HCC1143, in the test with CAL-120 and with MDA-MB-468 was 0 throughout.
